From patent publication US20120156333A1, “STABILIZED BETA CRYPTOXANTHIN-CONTAINING WATER AND THE USE THEREOF” (ARKRAY, INC., priority 2010, published 2012)

Experiments:
Format in all cases: physicochemical
[1] = β cryptoxanthin stabilizing test, Example 3B (water from concentrated liquid, varied β cryptoxanthin concentration, stored at 45° C.)
Method: The prepared concentrated liquid derived from Citrus unshiu and water were mixed. Thus, β cryptoxanthin-containing waters were prepared. In the mixing, concentrations of the β cryptoxanthin were set to predetermined parts by mass with respect to 100 parts by mass of a combination of the water and components contained in the water. The predetermined parts by mass were 0.0007, 0.0015, 0.0025, 0.0053, and 0.0072 parts by mass. Thus, five types of β cryptoxanthin-containing waters each having a different concentration of the β cryptoxanthin were prepared. Each of the β cryptoxanthin-containing waters was sufficiently stirred. Thereafter 90 g of the resultant β cryptoxanthin-containing water was filled in an aluminum pouch, which was then sterilized under the condition at 85° C. for 30 minutes.
Five types of the β cryptoxanthin-containing waters of the example were stored at 45° C. for one month. Sampling was conducted on a storage start date and after one month from the storage start date. The respective amounts of β cryptoxanthin in samples were measured by HPLC in the same manner as in Example 1B. Then, assuming that the amount of β cryptoxanthin on the storage start date was 100%, residual ratios of β cryptoxanthin were determined.

[2] = β cryptoxanthin stabilizing test, Example 2A (water from Citrus unshiu powder with additive L-ascorbic acid, stored at 40° C.); conditions: 0.0022 parts by mass β cryptoxanthin (powder) in water
Method: The prepared powder derived from Citrus unshiu and water were mixed. Thus, a mixed solution was prepared. The mixing was conducted so that a mass ratio between β cryptoxanthin contained in the powder and the mixed water became 1 mg:50 g (0.0022 parts by mass of β cryptoxanthin with respect to 100 parts by mass of finally obtained β cryptoxanthin-containing water). Vitamin C (L-ascorbic acid) was added to the mixed solution, which was then mixed by stirring. Thus, β cryptoxanthin-containing waters were prepared. The total amounts of L-ascorbic acid in the respective β cryptoxanthin-containing waters were set to 0.005, 0.01, 0.02, 0.1, and 0.2 parts by mass with respect to 100 parts by mass of entire β cryptoxanthin-containing water by adding vitamin C. 50 g of five types of the β cryptoxanthin-containing waters were filled in the respective brown bottles. Thereafter, the brown bottles were subjected to a heat sterilization treatment under the condition at 90° C. for 30 minutes, which were then stored at 40° C. Sampling was conducted on a storage start date and after two months from the same. The respective amounts of β cryptoxanthin in samples were measured in the same manner as in Example 1A. Then, assuming that the amount of β cryptoxanthin on the storage start date was 100%, residual ratios of β cryptoxanthin were determined.

[3] = β cryptoxanthin stabilizing test, Example 1A (water from Citrus unshiu paste with additive L-ascorbic acid, stored at 40° C.); conditions: 0.002 parts by mass β cryptoxanthin (paste) in water
Method: The prepared paste derived from Citrus unshiu and water were mixed. Thus, a mixed solution was prepared. The mixing was conducted so that a mass ratio between β cryptoxanthin contained in the paste and the mixed water became 1 mg:50 g (0.002 parts by mass of β cryptoxanthin with respect to 100 parts by mass of finally obtained β cryptoxanthin-containing water). Vitamin C (L-ascorbic acid) was added to the mixed solution, which was then mixed by stirring. Thus, β cryptoxanthin-containing waters were prepared. The total amounts of L-ascorbic acid in the respective β cryptoxanthin-containing waters were set to 0.005, 0.01, 0.02, 0.05, 0.1, and 0.2 parts by mass with respect to 100 parts by mass of entire β cryptoxanthin-containing water by adding vitamin C. As a blank, a β cryptoxanthin-containing water was prepared in the same manner as described above except that vitamin C (L-ascorbic acid) was not added to the mixed solution. 50 g of six types of the β cryptoxanthin-containing waters and 50 g of the f3-cryptoxanthin-containing water as a blank were filled in the respective brown bottles. Thereafter, the brown bottles were subjected to a heat sterilization treatment under the condition at 90° C. for 30 minutes, which were then stored at 40° C. Sampling was conducted on a storage start date, after one month from the storage start date, and after two months from the same. The respective amounts of β cryptoxanthin in samples were measured by HPLC as shown below. Then, assuming that the amount of β cryptoxanthin on the storage start date was 100%, residual ratios of β cryptoxanthin were determined. The samples were treated at 70° C. for 30 minutes under alkaline conditions before being subjected to HPLC. By this treatment, β cryptoxanthin in the samples was saponified and was converted to a free form. After the treatment, the samples were subjected to a liquid-liquid extraction and were then concentrated. Thus, samples for HPLC were obtained. In the measurements of the amounts of β cryptoxanthin by HPLC, a HPLC system to which a column (J'sphere ODS-M80 (product name) with 250×4.6 mm I.D, produced by YMC Co., Ltd.) had been connected was used, and absorbances at 455 nm were measured by a UV detector ([…] (product name), produced by Hitachi Ltd.). Conditions of the column were as follows. • Mobile phase: acetonitrile/tetrahydrofuran (volume ratio: 95/5) containing 0.1% acetic acid and 50 ppm of α-tocopherol • Flow rate: 1.0 mL/minute • Column temperature: 55° C.

[4] = Storage stability at 20° C. and 25° C. calculated by Arrhenius equation, Example 4A; conditions: for possible storage period in the stable state: β cryptoxanthin-containing waters of Example 1A, 2A, and 3A, from storage at 40° C. for 2 months
Method: With respect to each of the β cryptoxanthin-containing waters prepared in Examples 1A, 2A, and 3A, storage stability at 20° C. and 25° C. was determined.
The storage stability was calculated by the following method with reference to the publication below. Conditions were described in the publication, hereby incorporated herein by reference. • Sumie Yoshioka (1995), “Iyakuhin no Anzensei—yoriyoi Kaihatsu to Hyoka notameno Kiso kara Jissai made—(Drug safety—principles and practices for improving development and evaluation—), Nankodo Co., Ltd.
Specifically, a graph of FIG. 185 on page 95 of the publication was cited. FIG. 1 is an Arrhenius plot of degradation of thiamine hydrochloride in a vitamin complex liquid agent, the Y axis indicates log Kobs (day^−1), and the X axis indicates 1/T (K^1). The stable periods were calculated based on the activation energy for degradation of thiamine hydrochloride in the vitamin complex liquid agent, shown in the graph.
In FIG. 1, the Y axis is indicated by not ln, but log. Therefore log Kobs was converted into ln k.
Then, −Ea/R and ln A were calculated from the ln k and 1/T (K^−1) on the X axis of FIG. 1 based on the Arrhenius equation represented by the formula (1) below.

[5] = additive L-ascorbic acid 0.005 parts by mass
[6] = additive L-ascorbic acid 0.01 parts by mass
[7] = additive L-ascorbic acid 0.02 parts by mass
[8] = additive L-ascorbic acid 0.1 parts by mass
[9] = additive L-ascorbic acid 0.2 parts by mass
[10] = additive L-ascorbic acid 0 parts by mass (blank)
[11] = additive L-ascorbic acid 0.05 parts by mass

Structure (SMILES): CC1=C(/C=C/C(C)=C/C=C/C(C)=C/C=C/C=C(C)/C=C/C=C(C)/C=C/C2=C(C)C[C@@H](O)CC2(C)C)C(C)(C)CCC1 [β cryptoxanthin]
- Residual ratio of β cryptoxanthin Storage for one month (%) ([1]; β cryptoxanthin 0.0007 parts by mass (concentrated liquid) in water): 42.6%
- Residual ratio of β cryptoxanthin Storage for one month (%) ([1]; β cryptoxanthin 0.0015 parts by mass (concentrated liquid) in water): 78.0%
- Residual ratio of β cryptoxanthin Storage for one month (%) ([1]; β cryptoxanthin 0.0025 parts by mass (concentrated liquid) in water): 95.8%
- Residual ratio of β cryptoxanthin Storage for one month (%) ([1]; β cryptoxanthin 0.0053 parts by mass (concentrated liquid) in water): 96.6%
- Residual ratio of β cryptoxanthin Storage for one month (%) ([1]; β cryptoxanthin 0.0072 parts by mass (concentrated liquid) in water): 100.8%
- Residual ratio of β cryptoxanthin Storage for two months (%) [2, 5]: 62.5%
- Residual ratio of β cryptoxanthin Storage for two months (%) [2, 6]: 75.5%
- Residual ratio of β cryptoxanthin Storage for two months (%) [2, 7]: 92.0%
- Residual ratio of β cryptoxanthin Storage for two months (%) [2, 8]: 100%
- Residual ratio of β cryptoxanthin Storage for two months (%) [2, 9]: 31.9%
- Residual ratio of β cryptoxanthin Storage for one month (%) [3, 10]: 76.9%
- Residual ratio of β cryptoxanthin Storage for two months (%) [3, 10]: 29.9%
- Residual ratio of β cryptoxanthin Storage for one month (%) [3, 5]: 83.8%
- Residual ratio of β cryptoxanthin Storage for two months (%) [3, 5]: 48.8%
- Residual ratio of β cryptoxanthin Storage for one month (%) [3, 6]: 96.7%
- Residual ratio of β cryptoxanthin Storage for two months (%) [3, 6]: 78.9%
- Residual ratio of β cryptoxanthin Storage for one month (%) [3, 7]: 100%
- Residual ratio of β cryptoxanthin Storage for two months (%) [3, 7]: 100%
- Residual ratio of β cryptoxanthin Storage for one month (%) [3, 11]: 98.0%
- Residual ratio of β cryptoxanthin Storage for two months (%) [3, 11]: 99.0%
- Residual ratio of β cryptoxanthin Storage for one month (%) [3, 8]: 94.4%
- Residual ratio of β cryptoxanthin Storage for two months (%) [3, 8]: 94.7%
- Residual ratio of β cryptoxanthin Storage for one month (%) [3, 9]: 68.3%
- Residual ratio of β cryptoxanthin Storage for two months (%) [3, 9]: 31.3%
- storage in a stable state at normal temperature ([4]; Example 4A, normal temperature (20° C. to 25° C.)): two years or more
- possible storage period in the stable state ([4]; 20° C.): about 34 months
- possible storage period in the stable state ([4]; 25° C.): about 16.2 months
